{
  "source": "patent US11766060B2",
  "about": "“Compositions comprising mogrosides, steviol glycosides and glycosylated derivatives thereof and methods of enhancing the mouthfeel or sweetness of consumables” (Sweet Green Fields, LLC, priority 2016, dated 2023)",
  "key": {"[1]": {"experiment": "Evaluation of taste profile compared to reference sugar solutions by panel (Example 3 method)", "assay_type": "in vivo, human", "details": "inclusion of thaumatin", "procedure": "I. The components where mixed and then dissolved in aqueous citric acid (pH 3.8) with ultrasound at room temperature and left to equilibrate for 30 minutes.\nThe sample solutions were evaluated by 8 panelists that have been previously qualified for their taste acuity. Samples coded with triple digit numbers were given to the panelist randomly. Panelists tasted the samples randomly. After tasting a sample, every panelist was required to rinse their mouth with water and rest for 60 seconds. For the sweetness evaluation of each sample, the sample was tested in pairs with several sugar solutions of given sweetness, such as 5%, 6%, 7%, 8%, 9%, or 10% as standard reference samples. The sweetness of each sample was compared with those of the reference sugar solutions, and the sweetness was evaluated and recorded according to the judgment that the sweetness of the sample was similar to a specific sugar solution or between specific sugar solutions. The results were recorded as the mean value of the results provided by the panels.\nFor evaluation of taste profile, the samples were tested and were compared to reference sugar solutions. Panelists judged if the taste profile of sample solutions were similar to that of sugar."}, "[2]": {"experiment": "Evaluation of the sweetness detection threshold (8 panelists rate sweet / not sweet)", "assay_type": "in vivo, human", "details": "at a 1 ppm level", "text": "The phrase “sweetness detection threshold” refers to the minimum concentration at which panelists consisting of 8 persons are able to detect sweetness in a composition, liquid or solid. This is further defined as provided in the Examples herein.\nThreshold of sweetness refers to a concentration of a material that below a concentration where sweetness can be detected may still impart a flavor to the consumable (including water). When half of a trained panel of testers determines something is “sweet” at a given concentration, then the sample meets the threshold. When less than half of a panel of testers cannot discern sweetness at a given concentration, then concentrations of the substance below the sweetness level are considered a flavoring.\nTo evaluate the sweetness potency of various concentrations of GMG or MGV in aqueous solutions, aqueous solutions of GMG and MGV at various concentrations were prepared and were evaluated at room temperature. The sample solutions were evaluated by 8 panelists that were previously qualified for their taste acuity. Samples coded with triple digit numbers were given to a panelist randomly. Panelists tasted the samples randomly. After tasting a sample, every panelist was required to wash their mouth with water and rest for 60 seconds. Panelists gave ratings of “sweet” or “not sweet” to each sample."}, "[3]": {"details": "pure thaumatin; cited from earlier work"}},
  "data": [
    {"substance": "thaumatin", "values": [
      {"measurement": "taste profile of MGV", "setting": "[1]", "result": "improved"},
      {"measurement": "sweetness imparted to a composition", "setting": "[2]", "result": "no sweetness"},
      {"measurement": "sweetness threshold", "setting": "[3]", "result": 7, "unit": "ppm"}
    ]}
  ]
}
